Key:
[1] = biological target: T1, CHIKV nsP2pro (Chikungunya virus, UniProt Q8JUX6); experiment: FRET-based nsP2pro proteolytic assay with peptide 2 (nsp3/4 site), 1,536-well qHTS; type: biochemical
[2] = biological target: T2, nsP2 protease (Chikungunya virus, UniProt Q8JUX6); experiment: cell-based; type: cell-based
T2 construct: expressed in transfected cells; host or cells: HEK293T (the results text says HEK293), transient co-transfection in pcDNA3.1(+)
T2 sequence (Q8JUX6 755-1333 limits assumed): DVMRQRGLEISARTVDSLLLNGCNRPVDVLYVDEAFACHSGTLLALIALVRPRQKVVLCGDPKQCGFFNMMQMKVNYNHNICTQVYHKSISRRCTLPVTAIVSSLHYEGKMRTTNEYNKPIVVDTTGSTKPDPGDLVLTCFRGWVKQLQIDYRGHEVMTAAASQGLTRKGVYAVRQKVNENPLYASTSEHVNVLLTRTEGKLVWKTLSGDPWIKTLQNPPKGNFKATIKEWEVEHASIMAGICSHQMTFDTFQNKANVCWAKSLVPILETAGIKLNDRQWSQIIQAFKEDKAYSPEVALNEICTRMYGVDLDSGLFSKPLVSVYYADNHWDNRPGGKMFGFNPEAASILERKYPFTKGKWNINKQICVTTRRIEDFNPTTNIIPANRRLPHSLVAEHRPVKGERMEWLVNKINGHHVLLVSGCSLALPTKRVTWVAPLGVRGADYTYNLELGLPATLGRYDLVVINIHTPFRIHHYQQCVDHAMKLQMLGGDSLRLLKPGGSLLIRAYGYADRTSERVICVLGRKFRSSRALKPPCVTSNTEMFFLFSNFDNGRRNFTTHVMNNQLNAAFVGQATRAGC

[3] = test system: SNB19 cells; experiment: CellTiter-Glo cell viability assay of SNB19 cells; type: cell-based, human; details: 48 h
Experimental: Cells were harvested in growth media and dispensed (5 µL /1,000 cells/well) onto 1536-well white plates (Aurora #EWB041000A) using a Multidrop Combi. Control and test compounds were added (25 nL) using an Echo 650 liquid handler. Plates were incubated for 48 h at 37 °C and 5% CO2 and then equilibrated to room temperature prior to addition of 4 µL /well of CellTiter-Glo (Promega) using a Multidrop Combi. Plates were subsequently incubated for 15 min at room temperature and centrifuged for 1 min at 1000 rpm. Luminescence was read on a ViewLux imager equipped with clear filters.

[4] = biological target: T3, full-length nsP2 (Chikungunya virus, UniProt Q8JUX6, C1333A); experiment: FRET-based full-length nsP2 proteolytic assay with peptide 2; type: biochemical; details: full-length nsP2 and peptide 2; read-out: IC50, inhibition of nsp3/4 cleavage by full-length enzyme
T3 sequence (Q8JUX6 536-1333 C1333A): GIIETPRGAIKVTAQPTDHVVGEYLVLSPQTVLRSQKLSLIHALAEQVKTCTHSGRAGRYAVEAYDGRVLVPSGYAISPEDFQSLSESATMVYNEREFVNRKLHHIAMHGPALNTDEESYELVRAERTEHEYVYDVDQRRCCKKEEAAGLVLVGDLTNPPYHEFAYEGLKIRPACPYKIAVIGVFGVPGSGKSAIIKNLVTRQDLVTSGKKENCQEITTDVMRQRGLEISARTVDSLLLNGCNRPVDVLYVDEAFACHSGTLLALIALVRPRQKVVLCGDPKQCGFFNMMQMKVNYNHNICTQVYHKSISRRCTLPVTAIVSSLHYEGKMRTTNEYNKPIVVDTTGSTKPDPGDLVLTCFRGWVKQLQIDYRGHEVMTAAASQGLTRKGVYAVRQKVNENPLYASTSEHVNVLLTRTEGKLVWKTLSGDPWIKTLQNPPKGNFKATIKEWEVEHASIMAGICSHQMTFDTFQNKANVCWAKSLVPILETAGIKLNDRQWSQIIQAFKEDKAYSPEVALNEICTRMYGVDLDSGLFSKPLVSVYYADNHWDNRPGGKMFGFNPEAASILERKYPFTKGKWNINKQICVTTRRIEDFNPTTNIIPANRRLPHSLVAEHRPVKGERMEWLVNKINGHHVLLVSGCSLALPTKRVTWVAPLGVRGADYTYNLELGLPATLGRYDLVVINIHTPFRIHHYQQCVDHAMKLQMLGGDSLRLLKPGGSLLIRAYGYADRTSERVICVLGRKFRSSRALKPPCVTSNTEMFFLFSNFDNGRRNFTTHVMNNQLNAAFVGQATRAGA
Experimental: (§1) To gain further insight on their therapeutic potential, we investigated whether confirmed hits inhibit proteolytic activity in the context of full-length nsP2 protein rather than isolated protease domain[13]. To test the set of confirmed inhibitors, we chose peptide 2 substrate and full-length enzyme concentrations of 1 μM and 150 nM, respectively. Compound activity correlated well between nsP2pro and full-length enzyme (Fig. 2A). Additionally, we tested whether hits inhibit proteolysis of the nsP2/3 site.
All reactions were incubated at room temperature (RT).
Two point five μM peptide 2 substrate and 150 nM nsP2pro were selected to run the assay into 1536-well plate format. ZnAc was used as a positive control in the assay (50 µM). […] For primary screens, compounds were tested at 7 concentrations, 1:3 dilution points ranging from 25 µM to 34 nM. […] Four µL nsP2pro enzyme mix in assay buffer (10 mM Tris⋅HCl pH 8.0 with 0.01% Tween 20) was dispensed into the plate using a BioRAPTR FRD liquid dispenser (Beckman Coulter). […] After 1 h, plates were immediately read on a ViewLux high-throughput CCD imager (Exposure = 10 s, Gain = High, Speed = Slow, Binning = 2X). The above assay was also incorporated in the NCATS HTS facility, which allowed for robotic liquid and compound dispensing, microplate handling, and fluorescence reading. […]

[5] = biological target: T1, CHIKV nsP2pro; experiment: FRET-based nsP2pro proteolytic assay with peptide 3 (nsp2/3 site); type: biochemical; details: nsP2pro and peptide 3; read-out: IC50, inhibition of cleavage of nsp2/3 peptide by nsp2pro
Experimental: as §1
Two point five μM peptide 2 substrate and 150 nM nsP2pro were selected to run the assay into 1536-well plate format. ZnAc was used as a positive control in the assay (50 µM). […] For primary screens, compounds were tested at 7 concentrations, 1:3 dilution points ranging from 25 µM to 34 nM. […] Four µL nsP2pro enzyme mix in assay buffer (10 mM Tris⋅HCl pH 8.0 with 0.01% Tween 20) was dispensed into the plate using a BioRAPTR FRD liquid dispenser (Beckman Coulter). The plate was incubated at RT (protected from light) for 15 min before addition of 4 µL substrate in assay buffer. After 1 h, plates were immediately read on a ViewLux high-throughput CCD imager (Exposure = 10 s, Gain = High, Speed = Slow, Binning = 2X). The above assay was also incorporated in the NCATS HTS facility, which allowed for robotic liquid and compound dispensing, microplate handling, and fluorescence reading. […]

[6] = test system: CHIKV; set-up: method as in PMID 30018455; details: cited from earlier work

| Structure (SMILES) | Enzymatic % Efficacy ([1]; nsP2pro biochemical assay, 13 cell-active hits) | IC50 ([1]; nsP2pro biochemical assay, 13 cell-active hits, read-out: Enzymatic IC50) | Cell-based % Efficacy [2] | AC50 ([2]; read-out: Cell-based AC50) | CC50 [3] | IC50 ([1]; nsP2pro and peptide 2, read-out: IC50, inhibition of nsp3/4 cleavage by nsP2pro) | IC50 [4] | IC50 [5] | effect on Nluc reporter signal in cellular nsp2 proteolytic assay [2] | concentrations effective in preventing CHIKV viral infection [6] |
| --- | --- | --- | --- | --- | --- | --- | --- | --- | --- | --- |
| CC(C)n1nc(C#Cc2ccccc2)c2c(N)ncnc21 [SPP 86] | -114.8% | 8 µM | 146.3% | 18.3 µM | 16.4 µM |  |  |  |  |  |
| CC(=O)[O-].CC(=O)[O-].[Zn+2] [ZnAc, Zinc acetate] |  |  |  |  |  | 0.192 ± 0.012 µM | 0.137 ± 0.011 µM | 0.685 ± 0.077 µM | did not increase Nluc reporter signal | higher than 60 µM |
